Assay results from patent US20090035306A1 (KALYPSYS, INC., priority 2006, published 2009).

Biological target: T1, human TGR5 (Homo sapiens, UniProt Q8TDU6)
T1 construct: expressed in transfected cells
T1 sequence (Q8TDU6 1-330): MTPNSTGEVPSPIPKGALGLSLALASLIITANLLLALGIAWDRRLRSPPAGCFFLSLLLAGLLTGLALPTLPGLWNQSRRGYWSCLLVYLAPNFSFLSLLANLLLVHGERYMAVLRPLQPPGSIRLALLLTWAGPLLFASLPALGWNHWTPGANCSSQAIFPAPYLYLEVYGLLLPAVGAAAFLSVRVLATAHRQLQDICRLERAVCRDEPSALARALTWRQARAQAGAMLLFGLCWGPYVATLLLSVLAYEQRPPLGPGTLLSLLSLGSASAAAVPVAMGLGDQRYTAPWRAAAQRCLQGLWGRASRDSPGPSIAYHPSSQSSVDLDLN
Experiment: cAMP production assay in HEK293 cells stably expressing TGR5 (LANCE TR-FRET)
Format: cell-based
Conditions: 30 minutes stimulation, read-out: cAMP Production in 293-TGR5 Cells EC50
Procedure: HEK293 cells stably expressing TGR5 (HEK293-TGR5) were established by stably transfecting HEK-293 cells with an expression vector (pcDNA 3.1, Invetrogen) inserted with human TGR5 cDNA using Fugene6 (Roche, Indianapolis, Ind.) according to conventional methods. Cells were grown in DMEM (invitrogen, Carlsbad, Calif.) supplemented with 10% FBS, 1% penicillin/streptomycin under geneticin selection. The presence of TGR5 transcripts in these cells was confirmed using branched DNA (bDNA, Genospectra, Inc., Fremont Calif.) following the manufacturer's protocol and using specific probes for human TGR5. cAMP production assay was performed in high throughput 1536 well format using LANCE cAMP detection kit (Perkin Elmer Inc., Boston, Mass.) according to the manufacturer's protocol. Briefly, HEK293-TGR5 cells were harvested using non-enzymatic cell dissociation buffer (Invitrogen, Carlsbad, Calif.) and suspended in DMEM supplemented with 0.1% FBS at a density of 800,000 cells/ml. Alexa antibody was added to the cell suspension, and 4 ul of the mixture was dispensed in white opaque tissue culture treated Greiner 1536 well plates (USA Scientific, Inc., Ocala, Fla.). After an overnight incubation at 37 C in an atmosphere of 10% CO2 and 95% humidity, 1 ul of 5 mM IBMX (Sigma, St. Louis, Mo.) solution in DMEM was dispensed for a final concentration of 1 mM. Cells were then stimulated with test compounds for 30 minutes, after which time 5 ul of detection reagent was added and incubated for 1-7 hrs at room temperature. TR-FRET signal was detected using the Viewlux (Perkin Elmer Inc., Boston Mass.). EC50 values were determined using Graph Pad Prizm analysis (GraphPad Software, Inc). The EC50 values for a wide range of bile acids generated from this assay were in agreement with the values published in the scientific literature. […] The symbol (+) denotes an EC50 value of ≦10 μM while the symbol (−) denotes an EC50 value of >10 μM (see Table 1).

Row | SMILES | EC50 [µM]
1 | COc1cc2nc(-c3ccc(F)cc3)n(NCc3ccc(Br)cc3)c(=O)c2cc1OC [Example 83, 3-(4-bromobenzylamino)-2-(4-fluorophenyl)-6,7-dimethoxy-quinazolin-4(3H)-one] | > 10
2 | O=c1c2ccccc2nc(-c2ccsc2)n1NCc1ccc(Br)cc1 [Example 89, 3-(4-bromobenzylamino)-2-(thiophen-3-yl)quinazolin-4(3H)-one] | ≤ 10
3 | Cc1cc(-c2nc3ccccc3c(=O)n2NCc2ccc(Br)cc2)ccc1F [Example 54, 3-(4-bromobenzylamino)-2-(4-fluoro-3-methylphenyl)quinazolin-4(3H)-one] | ≤ 10
4 | O=c1c2ccccc2nc(-c2cccs2)n1NCc1ccc(Br)cc1 [Example 86, 3-(4-bromobenzylamino)-2-(thiophen-2-yl)quinazolin-4(3H)-one] | ≤ 10
5 | O=C(O)c1ccc(CNn2c(-c3ccccc3F)nc3ccccc3c2=O)cc1 [Example 101, 4-((2-(2-fluorophenyl)-4-oxoquinazolin-3(4H)-ylamino)methyl)benzoic acid] | > 10
6 | COc1cc(-c2nc3ccccc3c(=O)n2NCc2ccc(C(F)(F)F)cc2)ccc1C [Example 68, 2-(3-methoxy-4-methylphenyl)-3-(4-(trifluoromethyl)benzylamino)quinazolin-4(3H)-one] | ≤ 10
7 | O=c1c2ccccc2nc(-c2ccc(F)cc2)n1NCc1ccc(F)cc1F [Example 80, 3-(2,4-difluorobenzylamino)-2-(4-fluorophenyl)quinazolin-4(3H)-one] | ≤ 10
8 | O=c1c2ccccc2nc(-c2cccc(OC(F)(F)F)c2)n1NCc1ccc(Br)cc1 [Example 60, 3-(4-bromobenzylamino)-2-(3-(trifluoromethoxy)phenyl)quinazolin-4(3H)-one] | ≤ 10
9 | O=c1c2ccccc2nc(-c2cccs2)n1N(Cc1ccc(C(F)(F)F)cc1)Cc1ccc(C(F)(F)F)cc1 [Example 88, 3-(bis(4-(trifluoromethyl)benzyl)amino)-2-(thiophen-2-yl)quinazolin-4(3H)-one] | ≤ 10
10 | CN(Cc1ccc(Br)cc1)n1c(-c2ccc(F)cc2)nc2ccccc2c1=O [Example 90, 3-((4-bromobenzyl)(methyl)amino)-2-(4-fluorophenyl)quinazolin-4(3H)-one] | ≤ 10
11 | COc1ccccc1-c1nc2ccccc2c(=O)n1NCc1ccc(Br)cc1 [Example 19, 3-(4-bromobenzylamino)-2-(2-methoxyphenyl)quinazolin-4(3H)-one] | > 10
12 | Cc1ccc(-c2nc3ccccc3c(=O)n2NCc2ccc(Cl)cc2)cc1Cl [Example 110, 2-(3-chloro-4-methylphenyl)-3-(4-chlorobenzylamino)quinazolin-4(3H)-one] | ≤ 10
13 | COc1ccc2c(=O)n(NCc3ccc(F)cc3F)c(-c3ccc(F)cc3)nc2c1 [Example 34, 3-(2,4-difluorobenzylamino)-2-(4-fluorophenyl)-7-methoxy quinazolin-4(3H)-one] | > 10
14 | O=c1c2ccccc2nc(-c2cccc(F)c2)n1NCc1ccc(Br)cc1 [Example 105, 3-(4-bromobenzylamino)-2-(3-fluorophenyl)quinazolin-4(3H)-one] | ≤ 10
15 | O=c1c2ccc(C(F)(F)F)cc2nc(-c2ccccc2F)n1NCc1ccc(F)cc1F [Example 29, 3-(2,4-difluorobenzylamino)-2-(2-fluorophenyl)-7-(trifluoromethyl)quinazolin-4(3H)-one] | > 10
16 | COc1ccc2nc(-c3ccccc3F)n(NCc3ccc(Br)cc3)c(=O)c2c1 [Example 26, 3-(4-bromobenzylamino)-2-(2-fluorophenyl)-6-methoxy quinazolin-4(3H)-one] | > 10
17 | COc1ccc(-c2nc3ccccc3c(=O)n2NCc2ccc(Cl)cc2)cc1O [Example 119, 3-(4-chlorobenzylamino)-2-(3-hydroxy-4-methoxyphenyl)quinazolin-4(3H)— one] | ≤ 10
18 | O=c1c2cccc(O)c2nc(-c2ccc(F)cc2)n1NCc1ccc(Br)cc1 [Example 113, 3-(4-bromobenzylamino)-2-(4-fluorophenyl)-8-hydroxyquinazolin-4(3H)-one] | ≤ 10
19 | O=c1c2ccccc2nc(-c2ccccc2F)n1NCc1cc(F)cc(F)c1 [Example 13, 3-(3,5-difluorobenzylamino)-2-(2-fluorophenyl)quinazolin-4(3H)-one] | ≤ 10

Row | SMILES | EC50 [µM]
20 | Cc1ccccc1-c1nc2ccccc2c(=O)n1NCc1ccc(Br)cc1 [Example 15, 3-(4-bromobenzylamino)-2-o-tolylquinazolin-4(3H)-one] | ≤ 10
21 | COc1ccc2c(=O)n(NCc3ccc(C(F)(F)F)cc3)c(-c3ccc(F)cc3)nc2c1 [Example 36, 2-(4-fluorophenyl)-7-methoxy-3-(4-(trifluoromethyl)benzylamino)quinazolin-4(3H)-one] | > 10
22 | O=c1c2ccccc2nc(-c2ccccc2F)n1NCc1cccc(C(F)(F)F)c1 [Example 20, 2-(2-fluorophenyl)-3-(3-(trifluoromethyl)benzylamino)quinazolin-4(3H)-one] | ≤ 10
23 | CCN(Cc1ccc(Br)cc1)n1c(-c2ccc(F)cc2)nc2ccccc2c1=O [Example 93, 3-((4-bromobenzyl)(ethyl)amino)-2-(4-fluorophenyl)quinazolin-4(3H)-one] | ≤ 10
24 | O=c1c2ccccc2nc(-c2cccc(O)c2)n1NCc1ccc(Br)cc1 [Example 96, 3-(4-bromobenzylamino)-2-(3-hydroxyphenyl)quinazolin-4(3H)-one] | ≤ 10
25 | O=c1c2ccccc2nc(-c2ccc(F)cc2)n1NCCc1ccc(Br)cc1 [Example 85, 3-(4-bromophenethylamino)-2-(4-fluorophenyl)quinazolin-4(3H)-one] | ≤ 10
26 | O=c1c2ccccc2nc(-c2ccccc2F)n1NCc1ccc(Br)cc1 [Example 5, 3-(4-bromobenzylamino)-2-(2-fluorophenyl)quinazolin-4(3H)-one] | ≤ 10
27 | O=c1c2ccccc2nc(-c2ccc(F)cc2)n1NCc1cc(C(F)(F)F)cc(C(F)(F)F)c1 [Example 91, 3-(3,5-bis(trifluoromethyl)benzylamino)-2-(4-fluorophenyl)quinazolin-4(3H)-one] | ≤ 10
28 | O=c1c2ccccc2nc(-c2cccc(Cl)c2)n1NCc1ccc(F)c(F)c1 [Example 50, 2-(3-chlorophenyl)-3-(3,4-difluorobenzylamino)quinazolin-4(3H)-one] | ≤ 10
29 | O=c1c2ccccc2nc(-c2ccccn2)n1NCc1ccc(Br)cc1 [Example 31, 3-(4-bromobenzylamino)-2-(pyridin-2-yl)quinazolin-4(3H)-one] | ≤ 10
30 | O=c1c2ccccc2nc(-c2ccc(F)cc2)n1NCc1ccc2ccccc2c1 [Example 38, 2-(4-fluorophenyl)-3-(naphthalen-2-ylmethylamino)quinazolin-4(3H)-one] | ≤ 10
31 | COc1ccc2c(=O)n(NCc3ccc(Br)cc3)c(-c3ccc(F)cc3)nc2c1 [Example 33, 3-(4-bromobenzylamino)-2-(4-fluorophenyl)-7-methoxyquinazolin-4(3H)-one] | > 10
32 | COc1cc(OC)cc(-c2nc3ccccc3c(=O)n2NCc2ccc(Br)cc2)c1 [Example 58, 3-(4-bromobenzylamino)-2-(3,5-dimethoxyphenyl)quinazolin-4(3H)-one] | ≤ 10
33 | Cc1ccc(-c2nc3ccccc3c(=O)n2NCc2ccc(Br)cc2)cc1Cl [Example 109, 3-(4-bromobenzylamino)-2-(3-chloro-4-methylphenyl)quinazolin-4(3H)-one] | ≤ 10
34 | COc1cccc(-c2nc3ccccc3c(=O)n2NCc2ccc(Cl)cc2)c1 [Example 56, 3-(4-chlorobenzylamino)-2-(3-methoxyphenyl)quinazolin-4(3H)-one] | ≤ 10
35 | O=c1c2ccccc2nc(-c2cccc(Cl)c2)n1NCc1ccc(Cl)cc1 [Example 48, 3-(4-chlorobenzylamino)-2-(3-chlorophenyl)quinazolin-4(3H)-one] | ≤ 10
36 | O=c1c2ccccc2nc(-c2ccco2)n1NCc1ccc(Br)cc1 [Example 40, 3-(4-bromobenzylamino)-2-(furan-2-yl)quinazolin-4(3H)-one] | ≤ 10
37 | O=c1c2ccccc2nc(-c2ccc(O)nc2)n1NCc1ccc(Br)cc1 [Example 117, 3-(4-bromobenzylamino)-2-(6-hydroxypyridin-3-yl)quinazolin-4(3H)-one] | ≤ 10
